The text below walks through data of US10022387B2, “Aza-heteroaryl compounds as PI3K-gamma inhibitors” (Incyte Corporation, priority 2015, dated 2018).

The subject of the experiment is Phosphorylated Ribosomal Protein S6 (RPS6) in THP-1 cells. Briefly: THP-1 RPS6 ELISA Assay. The experiment is classed as cell-based. Particulars: Homo sapiens, 2 hours with compound, 10 nM MCP-1 for 15 minutes, read-out: THP p-RPS6 ELISA IC50. The protocol: To measure the Phosphorylated Ribosomal Protein S6 (RPS6) in cell lysates, THP-1 cells (Human Acute Monocytic Leukemia) are purchased from ATCC (Manassas, Va.) and maintained in RPMI with 10% FBS (Gibco/Life Technologies, Carlsbad, Calif.). For the assay, THP-1 cells are serum starved overnight in RPMI, then plated in RPMI (2×10^5 cells/well in 90 μL) into 96-well flat-bottom tissue culture treated plates (Corning, Corning, N.Y.), in the presence or absence of a concentration range of test compounds. Covered plates are incubated for 2 hours at 37° C., 5% CO2 then treated with or without 10 nM MCP-1 (MYBioSource, San Diego, Calif.) for 15 minutes at 37° C., 5% CO2. Plates are centrifuged at 1600 RPM and supernatants are removed. Cells are lysed in Lysis Buffer (Cell Signaling, Danvers, Mass.) with Protease Inhibitor (Calbiochem/EMD, Germany), PMSF (Sigma, St. Louis, Mo.), HALTS (Thermo Fisher, Rockford, Ill.) for 30 min on wet ice. Cell lysates are frozen at −80° C. before testing. The lysates are tested in the Human/Mouse/Rat Phospho-RPS6 ELISA (R&D Systems, Inc. Minn, Minn.). The plate is measured using a microplate reader (SpectraMax M5—Molecular Devices, LLC Sunnyvale, Calif.) set to 450 nm with a wavelength correction of 540. IC50 determination is performed by fitting the curve of inhibitor percent inhibition versus the log of the inhibitor concentration using the GraphPad Prism 5.0 software.
With `CCS(=O)(=O)Nc1cc(-c2ccc3nc(-c4nc5ccccc5[nH]4)oc3c2)cnc1Cl` [Example 26, N-(5-(2-(1H-Benzo[d]imidazol-2-yl)benzo[d]oxazol-6-yl)-2-chloropyridin-3-yl)ethanesulfonamide], the IC50 is less than 1 µM.

Turning to `COc1cncc(-c2ccc3nc(-c4cnc(C5CC5)[nH]4)oc3c2)c1` [Example 42, 2-(2-Cyclopropyl-1H-imidazol-5-yl)-6-(5-methoxypyridin-3-yl)benzo[d]oxazole], the IC50 was not below 5 µM.

On to `O=S(=O)(CC(F)(F)F)Nc1cncc(-c2ccc3nc(-c4nc5ccccc5[nH]4)oc3c2)c1` [Example 77, N-(5-(2-(1H-Benzo[d]imidazol-2-yl)benzo[d]oxazol-6-yl)pyridin-3-yl)-2,2,2-trifluoroethanesulfonamide bis(trifluoroacetate)], for which the IC50 was less than 1 µM.

As to `CCS(=O)(=O)Nc1cc(-c2ccc3nc(-c4nc5ccccc5[nH]4)oc3c2)ccc1F` [Example 60, N-{5-[2-(1H-Benzimidazol-2-yl)-1,3-benzoxazol-6-yl]-2-fluorophenyl}ethanesulfonamide], the IC50 is not below 5 µM.

With `CN1CCN(S(=O)(=O)Nc2cc(-c3ccc4nc(-c5nc6ccccc6[nH]5)oc4c3)cnc2F)CC1` [Example 32, N-(5-(2-(1H-Benzo[d]imidazol-2-yl)benzo[d]oxazol-6-yl)-2-fluoropyridin-3-yl)-4-methylpiperazine-1-sulfonamide], the IC50 was less than 1 µM.

With `CN1CCN(S(=O)(=O)Nc2cncc(-c3ccc4nc(-c5nc6ccccc6[nH]5)oc4c3)c2)CC1` [Example 31, N-(5-(2-(1H-Benzo[d]imidazol-2-yl)benzo[d]oxazol-6-yl)pyridin-3-yl)-4-methylpiperazine-1-sulfonamide], the 50% inhibitory concentration (IC50) was less than 1 µM.

Turning to `CN(C)S(=O)(=O)c1cncc(-c2ccc3nc(-c4nc5ccccc5[nH]4)oc3c2)c1` [Example 37, 5-[2-(1H-benzimidazol-2-yl)-1,3-benzoxazol-6-yl]-N,N-dimethylpyridine-3-sulfonamide], the IC50 was less than 5 µM.

For `O=S(=O)(c1cncc(-c2ccc3nc(-c4nc5ccccc5[nH]4)oc3c2)c1)N1CCC(O)C1` (stereo not shown) [Example 58, 1-({5-[2-(1H-Benzimidazol-2-yl)-1,3-benzoxazol-6-yl]pyridin-3-yl}sulfonyl)pyrrolidin-3-ol bis(trifluoroacetate)], the IC50 was not below 5 µM.

Take `CCS(=O)(=O)Nc1cc(-c2ccc3nc(-c4nc5ccccc5[nH]4)oc3c2)cnc1C` [Example 25, N-(5-(2-(1H-Benzo[d]imidazol-2-yl)benzo[d]oxazol-6-yl)-2-methylpyridin-3-yl)ethanesulfonamide]: the IC50 was less than 5 µM.

For `CN(C)S(=O)(=O)Nc1cncc(-c2ccc3nc(-c4nc5ccccc5[nH]4)oc3c2)c1` [Example 21, N′-{5-[2-(1H-Benzimidazol-2-yl)-1,3-benzoxazol-6-yl]-pyridin-3-yl}-N,N-dimethylsulfamide], the half-inhibitory concentration (IC50) was less than 1 µM.

For `Cc1ncc(-c2ccc3nc(-c4nc5ccccc5[nH]4)oc3c2)cc1NS(=O)(=O)N(C)C` [Example 22, N′-{5-[2-(1H-Benzimidazol-2-yl)-1,3-benzoxazol-6-yl]-2-methylpyridin-3-yl}-N,N-dimethylsulfamide], the IC50 is less than 1 µM.

Turning to `CN(C)S(=O)(=O)Nc1cc(-c2ccc3nc(-c4nc5ccccc5[nH]4)oc3c2)cnc1F` [Example 23, N′-{5-[2-(1H-Benzimidazol-2-yl)-1,3-benzoxazol-6-yl]-2-fluoropyridin-3-yl}-N,N-dimethylsulfamide], the IC50 was less than 1 µM.

Turning to `Cc1ncc(-c2ccc3nc(-c4nc5ccccc5[nH]4)oc3c2)cc1NS(=O)(=O)c1ccc(F)cc1` [Example 28, N-(5-(2-(1H-Benzo[d]imdiazol-2-yl)benzo[d]oxazol-6-yl)-2-methylpyridin-3-yl)-4-fluorobenzene-sulfonamide], the 50% inhibitory concentration (IC50) was less than 1 µM.

For the molecule `CCS(=O)(=O)Nc1cc(-c2ccc3nc(-c4nc5ccccc5[nH]4)oc3c2)cc(F)c1OC` [Example 80, N-(5-(2-(1H-Benzo[d]imidazol-2-yl)benzo[d]oxazol-6-yl)-3-fluoro-2-methoxyphenyl)ethanesulfonamide bis(trifluoroacetate)], the IC50 was not below 5 µM.

In the case of `OC(c1cncc(-c2ccc3nc(-c4nc5c([nH]4)CCCC5)oc3c2)c1)C(F)(F)F` (stereo not shown) [Example 68, 2,2,2-Trifluoro-1-(5-(2-(4,5,6,7-tetrahydro-1H-benzo[d]imidazol-2-yl)benzo[d]oxazol-6-yl)pyridin-3-yl)ethanol], the IC50 is less than 5 µM.

Take `Nc1ncc(-c2ccc3nc(-c4nc5ccccc5[nH]4)oc3c2)cc1C(F)(F)F` [Example 56, 5-[2-(1H-Benzimidazol-2-yl)-1,3-benzoxazol-6-yl]-3-(trifluoromethyl)pyridin-2-amine bis(trifluoroacetate)]: the concentration for half-maximal inhibition (IC50) was not below 5 µM.

For the molecule `O=S(=O)(Nc1cncc(-c2ccc3nc(-c4ncc[nH]4)oc3c2)c1)c1ccc(F)cc1` [Example 39, N-(5-(2-(1H-Imidazol-2-yl)benzo[d]oxazol-6-yl)pyridin-3-yl)-4-fluorobenzenesulfonamide], the IC50 is less than 1 µM.

For the molecule `CN(C)S(=O)(=O)Nc1cncc(-c2ccc3nc(-c4ncc[nH]4)oc3c2)c1` [Example 41, N′-{5-[2-(1H-Imidazol-2-yl)-1,3-benzoxazol-6-yl]pyridin-3-yl}-N,N-dimethylsulfamide], the concentration for half-maximal inhibition (IC50) is less than 1 µM.

For the molecule `CC(C)Oc1cncc(-c2ccc3nc(-c4nc5ccccc5[nH]4)oc3c2)c1` [Example 15, 2-(1H-Benzo[d]imidazol-2-yl)-6-(5-isopropoxypyridin-3-yl)benzo[d]oxazole], the 50% inhibitory concentration (IC50) was less than 5 µM.

Turning to `COc1cc(-c2ccc3nc(-c4nc5ccccc5[nH]4)oc3c2)cnc1F` [Example 69, 2-(1H-Benzo[d]imidazol-2-yl)-6-(6-fluoro-5-methoxypyridin-3-yl)benzo[d]oxazole bis(trifluoroacetate)], the IC50 was not below 5 µM.

`O=S(=O)(Nc1cc(-c2ccc3nc(-c4nc5ccccc5[nH]4)oc3c2)cnc1F)c1ccc(F)cc1` [Example 30, N-(5-(2-(1H-Benzo[d]imidazol-2-yl)benzo[d]oxazol-6-yl)-2-fluoropyridin-3-yl)-4-fluorobenzene-sulfonamide]: the half-maximal inhibitory concentration (IC50) was less than 1 µM.

For `OC(c1cncc(-c2ccc3nc(-c4ncc[nH]4)oc3c2)c1)C(F)(F)F` (stereo not shown) [Example 61, 1-(5-(2-(1H-Imidazol-2-yl)benzo[d]oxazol-6-yl)pyridin-3-yl)-2,2,2-trifluoroethanol bis(trifluoroacetate)], the 50% inhibitory concentration (IC50) is less than 1 µM.

Regarding `Cc1nc(-c2nc3ccc(-c4cncc(C(O)C(F)(F)F)c4)cc3o2)[nH]c1C` (stereo not shown) [Example 67, 1-(5-(2-(4,5-Dimethyl-1H-imidazol-2-yl)benzo[d]oxazol-6-yl)pyridin-3-yl)-2,2,2-trifluoroethanol bis(trifluoroacetate)], the concentration for half-maximal inhibition (IC50) was less than 1 µM.

In the case of `CCS(=O)(=O)Nc1cncc(-c2ccc3nc(-c4ncc[nH]4)oc3c2)c1` [Example 40, N-(5-(2-(1H-Imidazol-2-yl)benzo[d]oxazol-6-yl)pyridin-3-yl)ethanesulfonamide], the IC50 was less than 5 µM.

As to `O=S(=O)(CC(F)(F)F)Nc1cc(-c2ccc3nc(-c4nc5ccccc5[nH]4)oc3c2)cnc1F` [Example 75, N-(5-(2-(1H-Benzo[d]imidazol-2-yl)benzo[d]oxazol-6-yl)-2-fluoropyridin-3-yl)-2,2,2-trifluoroethanesulfonamide bis(trifluoroacetate)], the half-maximal inhibitory concentration (IC50) is less than 1 µM.

Turning to `c1ccc(Cn2cc(-c3ccc4nc(-c5nc6ccccc6[nH]5)oc4c3)cn2)cc1` [Example 48, 2-(1H-Benzimidazol-2-yl)-6-(1-benzyl-1H-pyrazol-4-yl)-1,3-benzoxazole], the IC50 is not below 5 µM.

Turning to `CCCc1nc(-c2nc3ccc(-c4cncc(NS(=O)(=O)CC)c4)cc3o2)[nH]c1C` [Example 64, N-(5-(2-(5-Methyl-4-propyl-1H-imidazol-2-yl)benzo[d]oxazol-6-yl)pyridin-3-yl)ethanesulfonamide bis(trifluoroacetate)], the IC50 is not below 5 µM.

For the molecule `c1ccc2[nH]c(-c3nc4ccc(-c5ccc6[nH]ncc6c5)cc4o3)nc2c1` [Example 49, 2-(1H-Benzimidazol-2-yl)-6-(1H-indazol-5-yl)-1,3-benzoxazole], the concentration for half-maximal inhibition (IC50) was not below 5 µM.

`CCS(=O)(=O)n1ncc2ccc(-c3ccc4nc(-c5nc6ccccc6[nH]5)oc4c3)cc21` [Example 52, 6-[1-(Ethylsulfonyl)-1H-indazol-6-yl]-2-(1H-benzimidazol-2-yl)-1,3-benzoxazole]: the IC50 was not below 5 µM.

With `O=S(=O)(Nc1cncc(-c2ccc3nc(-c4nc5ccccc5[nH]4)oc3c2)c1)c1cccc(F)c1` [Example 19, N-(5-(2-(1H-Benzo[d]imidazol-2-yl)benzo[d]oxazol-6-yl)pyridin-3-yl)-3-fluorobenzene-sulfonamide], the IC50 was less than 5 µM.

With `N#Cc1cncc(-c2ccc3nc(-c4nc5ccccc5[nH]4)oc3c2)c1` [Example 35, 5-(2-(1H-Benzo[d]imidazol-2-yl)benzo[d]oxazol-6-yl)nicotinonitrile], the half-inhibitory concentration (IC50) was less than 5 µM.
